The source of these data is PubChem BioAssay (NCI).

Values joined by “and” are separate entries in the source; they are usually repeats but may differ in a detail not shown here. Identical values can stand only once.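 Five compound concentrations were applied to cells in 96-well plates for 48 hours; endpoints were derived by simple linear interpolation of the resulting dose-response curve. Abbreviation: GI50, concentration required for 50% inhibition of growth. TGI denotes the concentration required for complete inhibition of growth.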 Bounds are passed on as bounds.

Among the test systems are OVCAR-8 ovarian; SNB-19 CNS; HOP-62 NSCLC; SF-295 CNS; SN12C renal; NCI-H460 lung; COLO 205 colon; SK-MEL-2 melanoma; KM12 colon; RPMI-8226 leukemia; SR leukemia; SNB-75 CNS.
Common to all, as to test: NCI-60 cell line screen, 48 h

With `Cc1ccc(NC(=O)CC/C(CC(=O)C(C)(C)C)=N/NC(=O)c2cc3ccccc3cc2O)cc1C`, the TGI in the test on OVCAR-8 ovarian, in the test on SNB-19 CNS, in the test with HOP-62 NSCLC, in the test on SF-295 CNS, with SN12C renal and in the test with NCI-H460 lung was greater than 100 µM each time. Moreover, the TGI with COLO 205 colon, with SK-MEL-2 melanoma and with KM12 colon was greater than 100 µM throughout.

In the case of `CC1(C)N=C(/C(Cl)=[N+](/[O-])C(=O)c2ccc(Cl)cc2)C(C)(C)N1O`, the TGI is 45.3 µM in the test with OVCAR-8 ovarian; greater than 100 µM in the test on SNB-19 CNS; greater than 100 µM in the test with HOP-62 NSCLC; greater than 100 µM in the test on SF-295 CNS; 47 µM in the test on SN12C renal; greater than 100 µM with NCI-H460 lung. For the same compound, the TGI was 34.2 µM in the test on COLO 205 colon; 72.6 µM in the test with RPMI-8226 leukemia; greater than 100 µM in the test on SR leukemia; greater than 100 µM with SK-MEL-2 melanoma; greater than 100 µM in the test on KM12 colon.

For `COC(=O)C(Cc1ccccc1)NC(=O)C(CNC(=O)OCc1ccccc1)C(=O)OCc1ccccc1` (stereo unspecified), the TGI in the test with OVCAR-8 ovarian was greater than 100 µM; in the test with SNB-19 CNS, greater than 100 µM; with HOP-62 NSCLC, 39.9 µM and > 100 µM; in the test with SF-295 CNS, > 100 µM and 80.2 µM; in the test on SNB-75 CNS it was greater than 100 µM; in the test with SN12C renal it was greater than 100 µM. Also, the TGI is > 100 µM and 36.5 µM in the test with NCI-H460 lung; greater than 100 µM with COLO 205 colon; greater than 100 µM in the test on RPMI-8226 leukemia; greater than 100 µM in the test with SR leukemia; greater than 100 µM in the test with SK-MEL-2 melanoma; greater than 100 µM in the test with KM12 colon. The GI50 is 18 µM and 94.1 µM in the test on HOP-62 NSCLC; > 100 µM and 28.6 µM in the test with SF-295 CNS; 94.1 µM and 13.5 µM in the test with NCI-H460 lung.

Consider `COc1cc(C=O)cc(C=Nc2ccc(Br)cc2)c1O`, for which the TGI with OVCAR-8 ovarian was greater than 100 µM; in the test with SNB-19 CNS, greater than 100 µM; in the test with HOP-62 NSCLC it was 55.9 µM; in the test on SF-295 CNS, 21.1 µM; in the test on SNB-75 CNS, greater than 100 µM; in the test with SN12C renal, 32.7 µM. In addition, the TGI was 37.5 µM with NCI-H460 lung; 36.3 µM in the test on COLO 205 colon; 21.8 µM with RPMI-8226 leukemia; 40.8 µM in the test with SR leukemia; 17.6 µM in the test with SK-MEL-2 melanoma; greater than 100 µM with KM12 colon.

In the case of `CC1CC(c2ccccc2)=Nc2ccccc2S1` (stereo unspecified), the TGI with OVCAR-8 ovarian, with SNB-19 CNS, in the test with HOP-62 NSCLC, with SF-295 CNS, with SNB-75 CNS and in the test on SN12C renal was greater than 100 µM throughout. The TGI in the test on NCI-H460 lung, with COLO 205 colon, with RPMI-8226 leukemia, in the test with SR leukemia, with SK-MEL-2 melanoma and in the test with KM12 colon was greater than 100 µM throughout.

As to `O=C(N/N=C/c1ccccc1)c1c(F)c(F)c(F)c(F)c1F`, the TGI with OVCAR-8 ovarian, in the test on SNB-19 CNS, with HOP-62 NSCLC, in the test with SF-295 CNS, in the test with SNB-75 CNS and in the test on SN12C renal was greater than 100 µM throughout. In addition, the TGI in the test on NCI-H460 lung, in the test on COLO 205 colon, in the test with RPMI-8226 leukemia, in the test with SR leukemia, in the test with SK-MEL-2 melanoma and in the test on KM12 colon was greater than 100 µM each time.

With `CCC12CCC[C@@]13C=C[C@H](O3)C(C)(C)C2=O` (stereo partly specified), the TGI in the test on OVCAR-8 ovarian, in the test with SNB-19 CNS, in the test with HOP-62 NSCLC, in the test on SF-295 CNS, in the test on SNB-75 CNS and with SN12C renal was greater than 100 µM in each case. Besides, the TGI in the test on NCI-H460 lung, in the test with RPMI-8226 leukemia, with SR leukemia and in the test on SK-MEL-2 melanoma was greater than 100 µM in each case.

Turning to `[C-]#[O+].[Cl][Sn]([Cl])[Cl].[Cl][Sn]([Cl])[Cl].[Pt].c1cnc2c(c1)ccc1cccnc12`, the TGI with OVCAR-8 ovarian is greater than 100 µM; in the test with SNB-19 CNS, greater than 27.1 µM; in the test on HOP-62 NSCLC, 45.3 µM; in the test on SF-295 CNS, greater than 36.5 µM; in the test on SNB-75 CNS, 61.6 µM; in the test on SN12C renal, greater than 61.2 µM. In addition, the TGI was 23.5 µM with NCI-H460 lung; greater than 100 µM with COLO 205 colon; greater than 65.8 µM in the test on RPMI-8226 leukemia; 18.6 µM in the test on SK-MEL-2 melanoma; greater than 100 µM in the test with KM12 colon.

`O=C1c2ccccc2-c2c1c1ccccc1c(=O)n2CCCNCCNCCCn1c2c(c3ccccc3c1=O)C(=O)c1ccccc1-2`: the GI50 in the test with OVCAR-8 ovarian was less than 0.01 µM; in the test on HOP-62 NSCLC, less than 0.0172 µM; in the test with SF-295 CNS it was 0.0782 µM; with RPMI-8226 leukemia it was less than 0.01 µM; in the test with SR leukemia it was 0.0509 µM; in the test with SK-MEL-2 melanoma it was 2.02 µM. For the same compound, the GI50 with KM12 colon was less than 0.04 µM. Also, the TGI in the test on OVCAR-8 ovarian was 1.66 µM; with HOP-62 NSCLC, 0.582 µM; in the test on SF-295 CNS it was 2.32 µM; with SN12C renal, 1.81 µM; in the test on RPMI-8226 leukemia, 0.221 µM; in the test with SR leukemia, greater than 100 µM. In the test with KM12 colon, this compound gave a TGI of 0.415 µM.
